The record followed here is US5574166A, “Crystalline form of 2-(2-hydroxy-3-α-cumyl-5-tert-octylphenyl)-2H-benzotriazole” (Ciba-Geigy Corporation, priority 1995, dated 1996).

SMILES strings stand for the structures. Entries after “also recorded” stand apart in the source; their conditions may differ.

A short description of data set [1]: Solubility of benzotriazole UV absorbers in organic solvents (percent solids of saturated filtrate, ASTM D 2369-81). Conditions: for Solubility in organic solvents (in words): organic / coatings solvents. How it is done:
The relative solubility of three different benzotriazole UV absorbers in a five typical organic solvents is measured by dissolving the benzotriazole UV absorber in 50-100 mL of five different solvents till the solutions become supersaturated. This is seen when the benzotriazole begins to settle to the bottom of the test flask. The supersaturated solutions are allowed to remain undisturbed overnight. Then, the top layer is decanted and filtered. […] The higher the percent solids found indicates a more soluble benzotriazole.

The nature of data set [2]: Photostability of UV absorber in gelatine layer on polyester base (Example 21). The class given is physicochemical. To be noted: for Dmax (maximum density in the range 330-380 nm): before exposure, gelatine layer; for photostability (in words): 30-120 kJ/cm^2 exposure. How it is done: The amount of UV absorber shown in the table below is dissolved in 2 ml of ethyl acetate. 1 ml of this solution is mixed with 9 ml of an aqueous gelatine solution [comprising 27.6 g/l of gelatine and 6.8 g/l of an 8% aqueous solution of 4,8-diisobutylnaphthalene-2-sulfonic acid (sodium salt) as wetting agent]. This mixture is emulsified for 3 minutes by means of ultrasound. 7.5 ml of this UV absorber emulsion are mixed with 4.5 ml of an aqueous curing agent solution (comprising 0.24% of 2-hydroxy-4,6-dichloro-s-triazine, potassium salt). 8 ml of this emulsion are poured onto a polyester base (13×18 cm). The casting is cured for 7 days at room temperature. A UV spectrometer is then used to determine the values for the maximum density in the range from 330-380 nm. The sample is then exposed in an Arias exposure unit with a total of 30, 60, 90 and 120 kJ/cm^2, the maximum density is remeasured, and the difference (-ΔD in %) between the corresponding values is calculated.

A short description of data set [3]: Light stabilization effectiveness (general statement). Conditions: versus 2-[2-hydroxy-3,5-di(α-cumyl)phenyl]-2H-benzotriazole.
Data set [4] is described as follows: Handling properties and storage stability of the solid form. The class given is physicochemical. To be noted: apparent density.
The nature of data set [5]: Volatility of UV absorber. The class given is physicochemical. Conditions: long-term coating uses.
[6] abbreviates: EXXATE ® 600 (hexyl acetate from Exxon).
Setting [7] is: PM acetate (1-methoxy-2-propyl acetate).
Where [8] appears, read: PM solvent (1-methoxy-2-propanol).

Turning to `CCCCCCCCCc1cc(-n2nc3ccccc3n2)c(O)c(C(C)(C)c2ccccc2)c1` [Example 4, 2-(2-Hydroxy-3-α-cumyl-5-nonylphenyl)-2H-benzotriazole], the Solubility in data set [1] (setting [6]), in data set [1] (setting [7]), in data set [1] (acetone), in data set [1] (butyl acetate), in data set [1] (methyl amyl ketone) and in data set [1] (xylene) was above 50 grams/100 solvent throughout.

As for `CCCCCCCCCCCCc1cc(-n2nc3ccccc3n2)c(O)c(C(C)(C)c2ccccc2)c1` [Example 10, 2-(2-Hydroxy-3-α-cumyl-5-dodecylphenyl)-2H-benzotriazole], the ΔD in % in data set [2] (30 KJ exposure (kJ/cm^2)) stood at 2%; in data set [2] (60 KJ exposure (kJ/cm^2)), 4%; in data set [2] (90 KJ exposure (kJ/cm^2)), 5%; in data set [2] (120 KJ exposure (kJ/cm^2)), 8%. Besides, in data set [2], the “Dmax (maximum density in the range 330-380 nm)” value (shortened to “Dmax”) is 1.9. Also, the Solubility in data set [1] (setting [6]), in data set [1] (setting [7]), in data set [1] (acetone), in data set [1] (butyl acetate), in data set [1] (methyl amyl ketone) and in data set [1] (xylene) was above 50 grams/100 solvent in each case. Also, the “Solubility in organic solvents (in words)” value (“Solubility … (in words)” for short) in data set [1] is “do not suffer from the solubility limitations of UV absorber D in non-HAPS solvents”.

As for `CC(C)(C)CC(C)(C)c1cc(-n2nc3ccccc3n2)c(O)c(C(C)(C)c2ccccc2)c1` [Example 3, 2-(2-hydroxy-3-α-cumyl-5-tert-octylphenyl)-2H-benzotriazole], the “Ease and rate of dissolution” value in data set [1] (non-HAPS solvents) is “dissolves much more easily and rapidly in the non-HAPS solvents”. Besides, the “Solubility … (in words)” value is “essentially the same solubility parameters in the various solvents as seen in Example 13 for the new crystalline modification” in data set [1] and “excellent solubility characteristics” in data set [1] (listed as amorphous modification).

Consider `CC(C)(C)CC(C)(C)c1cc(-n2nc3ccccc3n2)c(O)c(C(C)(C)c2ccccc2)c1` [E, 2(2-hydroxy-3-cumyl-5-tert-octylphenyl)-2H-benzotriazole], for which the ΔD in % turned out to be 3% in data set [2] (30 KJ exposure (kJ/cm^2)), 4% in data set [2] (60 KJ exposure (kJ/cm^2)), 5% in data set [2] (90 KJ exposure (kJ/cm^2)) and 7% in data set [2] (120 KJ exposure (kJ/cm^2)). For the same molecule, the “Dmax” value in data set [2] worked out at 2.0. The “Solubility … (in words)” value in data set [1] is given as “do not suffer from the solubility limitations of UV absorber D in non-HAPS solvents”.

As for `CC(C)(C)CC(C)(C)c1cc(-n2nc3ccccc3n2)c(O)c(C(C)(C)c2ccccc2)c1` [Example 7, 2-(2-hydroxy-3-α-cumyl-5-tert-octylphenyl)-2H-benzotriazole], the light stabilization effectiveness entry in data set [3] is on record as “superior light stabilization effectiveness”. Besides, the “flowability, meterability and storage stability” value in data set [4] (listed as compound of formula I) is “acceptable properties in respect to handling, apparent density, flowability, meterability and storage stability”. In addition, the volatility result in data set [5] is on record as “same low volatility”. Further, the Solubility in data set [1] (setting [6]) turned out to be 22 grams/100 solvent; in data set [1] (setting [7]) it was 14 grams/100 solvent; in data set [1] (setting [8]), 4 grams/100 solvent; in data set [1] (butyl acetate) it was 33 grams/100 solvent; in data set [1] (methyl amyl ketone) it was 33 grams/100 solvent; in data set [1] (xylene) it was 76 grams/100 solvent. Besides, the “Solubility … (in words)” value in data set [1] is “soluble in environmentally friendly solvents”.

For `CC(C)(C)CC(C)(C)c1cc(-n2nc3ccccc3n2)c(O)c(C(C)(C)c2ccccc2)c1` [Example 2, 2-(2-Hydroxy-3-α-cumyl-5-tert-octylphenyl)-2H-benzotriazole], the “flowability, meterability and storage stability” value in data set [4] (listed as Example 18) is “poor flowability, meterability and storage stability”.

On to `CCC(C)(C)c1cc(-n2nc3ccccc3n2)c(O)c(C(C)(C)CC)c1` [UV absorber B], for which the “photostability (in words)” value in data set [2] was “not as photostable as the UV absorbers D, E and F”. Besides, the ΔD in % worked out at 4% in data set [2] (30 KJ exposure (kJ/cm^2)), 7% in data set [2] (60 KJ exposure (kJ/cm^2)), 12% in data set [2] (90 KJ exposure (kJ/cm^2)) and 24% in data set [2] (120 KJ exposure (kJ/cm^2)). Moreover, the “Dmax” value in data set [2] is given as 2.1. Further, the volatility entry in data set [5] is “too volatile for long term coating uses”. Moreover, the Solubility in data set [1] (setting [6]) was 24 grams/100 solvent; in data set [1] (setting [7]), 10 grams/100 solvent; in data set [1] (setting [8]), 4 grams/100 solvent; in data set [1] (butyl acetate), 27 grams/100 solvent; in data set [1] (methyl amyl ketone) it was 24 grams/100 solvent; in data set [1] (xylene) it was 54 grams/100 solvent. In addition, the “Solubility … (in words)” value in data set [1] is reported as “clearly quite soluble even in the solvents other then xylene”.

For `CC(C)(c1ccccc1)c1cc(-n2nc3ccccc3n2)c(O)c(C(C)(C)c2ccccc2)c1` [UV absorber A, 2(2-hydroxy-3,5-di-cumylphenyl)-2H-benzotriazole], the “photostability (in words)” value in data set [2] was “no more stable than are UV absorbers E and F”. For the same molecule, the values for the ΔD in % in data set [2] (30 KJ exposure (kJ/cm^2)) and in data set [2] (60 KJ exposure (kJ/cm^2)) were 0% and 5%, respectively. Further, the “Dmax” value in data set [2] amounted to 1.9. Moreover, the volatility entry in data set [5] was “excellent non-volatility”. Moreover, the Solubility was determined as 4 grams/100 solvent in data set [1] (setting [6]); 3 grams/100 solvent in data set [1] (setting [7]); 6 grams/100 solvent in data set [1] (butyl acetate); 4 grams/100 solvent in data set [1] (methyl amyl ketone); 14 grams/100 solvent in data set [1] (xylene). Besides, the “Solubility … (in words)” value in data set [1] (listed as 2-(2-hydroxy-3,5-di-α-cumylphenyl)-2H-benzotriazole) is “relatively insoluble; also recorded: sparingly soluble”; in data set [1] (listed as 2-[2-hydroxy-3,5-di(α-cumyl)phenyl]-2H-benzotriazole) it was “sparingly soluble in environmentally more friendly solvents”. Further, the “solubility in toluene or xylene” value in data set [1] (toluene or xylene) is on record as “about 14 % by weight”. Further, the “soluble at level in xylene” value in data set [1] (xylene) is ~14 % (by weight).

Consider `CCCCCCCCCCCCc1cc(C)cc(-n2nc3ccccc3n2)c1O` [B, 2(2-hydroxy-3-dodecyl-5-methylphenyl)-2H-benzotriazole], for which, in data set [2], the “photostability (in words)” value was “not as photostable as the UV absorbers D, E and F”. The ΔD in % stood at 5% in data set [2] (30 KJ exposure (kJ/cm^2)), 10% in data set [2] (60 KJ exposure (kJ/cm^2)), 17% in data set [2] (90 KJ exposure (kJ/cm^2)) and 25% in data set [2] (120 KJ exposure (kJ/cm^2)). In addition, the “Dmax” value in data set [2] is reported as 2.1.

As to `CCC(C)c1cc(C(C)(C)C)cc(-n2nc3ccccc3n2)c1O` (stereo not drawn) [A, 2(2-hydroxy-3-sec-butyl-5-tert-butylphenyl)-2H-benzotriazole], the “photostability (in words)” value in data set [2] was “not as photostable as the UV absorbers D, E and F”. Moreover, the ΔD in % in data set [2] (30 KJ exposure (kJ/cm^2)) worked out at 4%; in data set [2] (60 KJ exposure (kJ/cm^2)), 8%; in data set [2] (90 KJ exposure (kJ/cm^2)) it was 16%; in data set [2] (120 KJ exposure (kJ/cm^2)), 25%. Further, the “Dmax” value in data set [2] worked out at 2.0.
